Legend:
[1] = target: FLNA pentapeptide of SEQ ID NO: 1 (Bn-VAKGL) (Homo sapiens, UniProt P21333); experiment: FITC-NLX-based FLNA screening assay (inhibition of FITC-naloxone binding to Bn-VAKGL on streptavidin plates); settings: 10 nM FITC-NLX, read-out: Percent Binding Inhibition
[2] = system: mu opiate receptor (MOR); experiment: MOR agonist activity using [35S]GTPγS binding assay in striatal membranes; assay type: biochemical; settings: Series C-2
In short: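 Striatal membranes (200 μg) were preincubated 5 min at 30 °C in HEPES pH 7.5 with 100 mM NaCl, 1 mM MgCl2 and 0.5 nM [35S]GTPγS, then 5 min more with 0.1–10 μM compound. Gαo was immunoprecipitated and bound radioactivity counted by scintillation.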

[3] = system: adrenergic α1 receptors; experiment: Standard receptor binding assay; settings: 10 μM concentration
[4] = target: sigma σ1 receptor (Homo sapiens, UniProt Q99720); experiment: Standard receptor binding assay; settings: 10 μM concentration
Sequence of sigma σ1 receptor (Q99720 whole entry): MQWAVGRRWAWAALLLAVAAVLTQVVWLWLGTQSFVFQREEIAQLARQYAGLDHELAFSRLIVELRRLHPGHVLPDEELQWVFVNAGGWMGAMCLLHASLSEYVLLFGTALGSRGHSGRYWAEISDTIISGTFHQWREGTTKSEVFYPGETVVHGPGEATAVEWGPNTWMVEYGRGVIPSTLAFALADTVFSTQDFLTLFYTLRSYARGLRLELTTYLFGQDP

[5] = system: BxPC3 pancreatic cancer cell implants; experiment: Xenograft tumor size study; settings: gemcitabine at 50 mg/kg i.p. b.i.d.
[6] = target: biotinylated pentapeptide (Bn-VAKGL) of SEQ ID NO: 1 (Homo sapiens, UniProt P21333); experiment: Inhibition of [3H]NLX binding to biotinylated pentapeptide (Bn-VAKGL); settings: read-out: IC50, inhibition of [3H]NLX binding to Bn-VAKGL; single affinity state
Description: Data are derived from 6 studies, each using a different set of A7 cells.

For `COc1ccc(S(=O)(=O)N2CCOC23CCNCC3)cc1` [Compound C0027], the inhibition at 0.01 µM ([1]; FLNA-binding compound 0.01 μM) was 50.8%, the inhibition at 0.1 µM ([1]; FLNA-binding compound 0.1 μM) was 61.2% and the inhibition at 1 µM ([1]; FLNA-binding compound 1 μM) was 63.8%. For the same compound, the “% DAMGO (0.1 μM)” value ([2]; 0.1 μM compound, relative to DAMGO) was 121.3%, the “MOR agonist activity, percent [35S]GTPγS binding at the stated compound concentration” value (“MOR agonist activity, percent” below) ([2]; 0.1 μM compound, [35S]GTPγS binding to Gαo, striatal membranes) was 233.2% and the “MOR agonist activity, percent” value ([2]; 1 μM compound + 1 μM β-FNA) was 72.2%. For the same compound, the “% DAMGO + BFNA” value ([2]; 1 μM compound + β-FNA, relative to DAMGO + BFNA) was 164.5%, the “% DAMGO (1 μM)” value ([2]; 1 μM compound, relative to DAMGO) was 115.0% and the “MOR agonist activity, percent” value ([2]; 1 μM compound, [35S]GTPγS binding to Gαo, striatal membranes) was 313.9%. The “Activity at adrenergic α1 receptors” value [3] was “antagonist” and the “Activity at sigma σ1 receptor” value [4] was “antagonist”.

With `Nc1ccn([C@@H]2O[C@H](CO)[C@@H](O)C2(F)F)c(=O)n1` [gemcitabine] the Tumor growth [5] was “slowed growth but did not shrink BxPC3 xenograft tumors”.

With `O=C1CC[C@@]2(O)[C@H]3Cc4ccc(O)c5c4[C@@]2(CCN3CC2CC2)[C@H]1O5` [Naltrexone] the IC50 [6] was 0.043 nM.

Reference: patent US10363239B2, “Method for inhibiting growth of cancer cells” (Pain Therapeutics, Inc., priority 2013, dated 2019)
